The nature of data set [1]: Titration (66% DMF). Format: physicochemical. The text has this:
Titration (66% DMF): pK=7.4, Apparent Mol. Wt.=463 (457 Calculated) Mass Spectral Analysis (FAB) m/z: 458 [(M+1)^+]

Each structure is given as a SMILES string.

In turn, `NC(=O)C(O)c1ccc(Oc2cccc(-c3ccccc3)c2)cc1OCCCCC(=O)[O-].[Na+]` (racemic) [Example 7, Sodium(RS)-2-(4-carboxybutoxy)-4-(3-phenylphenoxy)phenyl-2-hydroxyacetamide] showed a pK in data set [1] of 7.4.

Regarding `NC(=O)Cc1ccc(Oc2ccc(F)cc2)cc1` [Example 1, 4-(4-fluorophenoxy)phenylacetamide], the melting point (usually the temperature of the solid-liquid transition) lay in the range of 170 to 171 °C. `NC(=O)Cc1ccc(Oc2ccccc2)cc1` [Example 2, 4-phenoxyphenylacetamide]: the melting point was in the range of 161 to 163 °C. The molecule `NC(=O)Cc1cccc(Oc2ccccc2)c1` [Example 3, 3-phenoxyphenylacetamide] had a melting point of 115 to 117 °C.
